This is an account of results in publication PMC3649970, “A Unique Spumavirus Gag N-terminal Domain with Functional Properties of Orthoretroviral Matrix and Capsid” (PLoS Pathogens, 2013).

One assay deals with equivalent Gag-NtD (FFV). Particulars: FFV Env leader peptide with FFV Gag-NtD; ref [29]; cited from earlier work. The text has this: In the structure, residues 7–16 of the Env leader peptide comprise the amphipathic α-helix bound in the Env binding site of the Gag-NtD and residues 1–6 provide intramolecular hydrogen bonding that stabilises the helical conformation. […] Therefore, the hydrophobic interface observed in the structure likely represents the complete interaction between the leader peptide and FV Gag. The apolar ch ...

Another assay addresses T1, PFV-Gag-NtD (Human spumaretrovirus, UniProt P14349).
T1 construct: HFV ht-(M1-S179); made in house; host or cells: E. coli Rosetta 2 (DE3)
T1 sequence (P14349 1-179): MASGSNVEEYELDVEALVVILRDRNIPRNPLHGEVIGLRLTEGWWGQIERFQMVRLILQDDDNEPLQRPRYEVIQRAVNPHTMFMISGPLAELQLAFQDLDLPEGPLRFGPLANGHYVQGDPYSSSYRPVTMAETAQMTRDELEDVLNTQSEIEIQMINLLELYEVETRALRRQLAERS
As to the kind of experiment: ITC binding of Env1–20 to PFV-Gag-NtD. Conditions: 1 mM Env peptide injected into 50 µM PFV-Gag-NtD, 25 mM Na-phosphate pH 6.55, 100 mM NaCl, 0.5 mM TCEP, read-out: equilibrium association constant (K) (converted). Further details: species or system Prototypic Foamy Virus (PFV). The text has this:
The DNA sequences coding for PFV-Gag residues 1–179 (PFV-Gag-NtD) and FFV residues 1–154 (FFV-Gag-NtD) were amplified by PCR from template plasmids pcziGag4 and pcDWF003 containing the PFV and FFV Gag genes respectively. PCR products were inserted into a pET47b expression vector (Novagen) using ligation independent cloning in order to produce N-terminal His-tag fusions with 3C protease cleavage sites. The correct sequence of expression constructs was verified by automated DNA sequencing (Beckman Coulter Genomics). His-tagged PFV- and FFV-Gag-NtD were expressed in the E. coli strain Rosetta 2 (DE3) and purified using Ni-NTA affinity (Qiagen) and size exclusion chromatography on Superdex 200 (GE healthcare). Selenium was incorporated into PFV-Gag-NtD by replacement of methionine with seleno-methionine in defined culture medium and by inhibition of methionine biosynthesis just prior to IPTG induction. Verification of the processed N-terminal methionine, correct molecular mass and degree of selenium incorporation was obtained by electrospray ionisation mass-spectrometry. Peptides comprising residues 1–20 and 5–18 from the PFV-Env leader region were purchased HPLC purified from Pepceuticals Ltd.
ITC was carried out using an ITC-200 calorimeter (MicroCal). […] Data was analysed using the Origin-based software provided by the manufacturers.

Ends that are not written are not given here.

As for “residues 1–30 of the FFV Env leader peptide: residues 1–30 of the FFV Env leader peptide (MEQEHVMTLKEWMEWNAHKQLQKLQSTHPE; leader peptide; UniProt O56861 1-30, looked up, fragment)”, the equilibrium association constant in the assay on equivalent Gag-NtD (FFV) is 65000 M⁻¹. With MAPPMTLQQWIIWKKMNKAH [Env1–20], at PFV-Gag-NtD, the Kd was 6.67 µM.
